Read-outs that look alike come from different tables or passages of the source.
Tested on: Propionibacterium acnes ATCC 6919
Description: The sample is then recovered onto agar and incubated 5-7 days until clear colonies are visible. […] The anti-P. acnes activity of various test treatments were compared. Anti-P. acnes activity was measured using the in vitro method described above. The test treatments comprised either 0.1 or 0.25 weight percent of succinic acid in reinforced clostridial media with and without the administration of 440 nm blue light. […] Non-control test samples were adjusted to a pH of 4.5.

With O=C(O)CCC(=O)O [Succinic Acid, Succinic acid (butanedioic acid)] the “antimicrobial activity of the combination relative to the expected additive reduction” value (0.1% succinic acid + light: 6.7 log reduction vs additive 2.6 log reduction) was “about 12,000 times”, the “reduction of P. acnes bacterial count” value (0.1% succinic acid combined with light) was 6.7 logs and the “Log 10 reduction vs Control Solution” value (0.1% succinic acid in reinforced clostridial media, pH 4.5, no light) was 2.0 Log 10. The “reduction of P. acnes bacterial count” value (0.1% succinic acid, no light, compared to untreated control solution) was 2 logs, the “Log 10 reduction vs Control Solution” value (0.1% succinic acid, pH 4.5, + 440 nm blue light) was >6.7 Log 10 and the “antimicrobial activity of the combination relative to the expected additive reduction” value (0.25% succinic acid + light: 6.7 log reduction vs additive 6.2 log reduction) was “about 3 times”. The “reduction of P. acnes bacterial count” value (0.25% succinic acid combined with light) was 6.7 logs, the “Log 10 reduction vs Control Solution” value (0.25% succinic acid in reinforced clostridial media, pH 4.5, no light) was 5.6 Log 10 and the “reduction of P. acnes bacterial count” value (0.25% succinic acid, no light, compared to untreated control solution) was 5.6 logs. The “Log 10 reduction vs Control Solution” value (0.25% succinic acid, pH 4.5, + 440 nm blue light) was >6.7 Log 10.

From patent US10973789B2, “Compositions and methods for treating skin conditions using light and polycarboxylic acids” (Johnson & Johnson Consumer Inc., priority 2017, dated 2021)
